{"source": "patent US9943488B2", "about": "“Gamma hydroxybutyric acid granules” (DEBREGEAS ET ASSOCIES PHARMA, priority 2011, dated 2018)", "origin": "cited, not measured here", "conditions": "after oral administration"}
{"smiles": "O=C(O)CCCO", "note": "[GHB, Gamma-hydroxybutyric acid]", "values": [{"measurement": "Absolute bio-availability", "result": 25, "unit": "%"}]}
